Values of other authors, collected in patent US9040513B2, “Process for preparing platinum-carbene complexes” (CENTRE NATIONAL DE LA RECHERCHE SCIENTIFIQUE, priority 2010, dated 2015).

Biological target: integrin αvβ3 (Homo sapiens, UniProt P05106+P06756)
Conditions: background statement

Chain of integrin αvβ3 (P06756 31-889 limits assumed): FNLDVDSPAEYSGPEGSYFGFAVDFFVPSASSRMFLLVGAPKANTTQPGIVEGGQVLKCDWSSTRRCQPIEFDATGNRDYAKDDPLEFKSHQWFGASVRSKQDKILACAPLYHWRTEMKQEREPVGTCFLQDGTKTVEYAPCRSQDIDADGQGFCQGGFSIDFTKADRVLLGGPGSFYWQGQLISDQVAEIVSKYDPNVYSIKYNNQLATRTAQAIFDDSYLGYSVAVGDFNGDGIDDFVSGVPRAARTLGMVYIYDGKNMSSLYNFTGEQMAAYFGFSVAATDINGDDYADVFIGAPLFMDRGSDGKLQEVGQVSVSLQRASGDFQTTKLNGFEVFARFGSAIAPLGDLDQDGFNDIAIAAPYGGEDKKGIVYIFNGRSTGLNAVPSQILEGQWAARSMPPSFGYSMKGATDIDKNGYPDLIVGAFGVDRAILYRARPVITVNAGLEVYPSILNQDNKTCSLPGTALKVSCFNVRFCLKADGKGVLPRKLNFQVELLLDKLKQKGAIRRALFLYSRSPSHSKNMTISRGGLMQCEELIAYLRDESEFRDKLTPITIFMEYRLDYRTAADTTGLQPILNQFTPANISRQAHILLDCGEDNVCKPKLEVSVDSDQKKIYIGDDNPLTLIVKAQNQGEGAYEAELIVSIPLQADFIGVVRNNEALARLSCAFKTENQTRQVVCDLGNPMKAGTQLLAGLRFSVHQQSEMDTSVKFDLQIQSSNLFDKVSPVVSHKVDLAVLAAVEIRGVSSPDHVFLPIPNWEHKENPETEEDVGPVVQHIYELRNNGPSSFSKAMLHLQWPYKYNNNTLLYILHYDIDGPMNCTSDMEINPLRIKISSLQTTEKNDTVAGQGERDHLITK
Chain of integrin αvβ3 (P06756 891-1048 partner limits assumed): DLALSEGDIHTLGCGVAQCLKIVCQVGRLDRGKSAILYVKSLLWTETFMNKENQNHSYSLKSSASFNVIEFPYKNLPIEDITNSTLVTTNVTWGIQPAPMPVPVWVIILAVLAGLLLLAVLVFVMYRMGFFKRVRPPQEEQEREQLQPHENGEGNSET
Chain of integrin αvβ3 (P05106 27-788): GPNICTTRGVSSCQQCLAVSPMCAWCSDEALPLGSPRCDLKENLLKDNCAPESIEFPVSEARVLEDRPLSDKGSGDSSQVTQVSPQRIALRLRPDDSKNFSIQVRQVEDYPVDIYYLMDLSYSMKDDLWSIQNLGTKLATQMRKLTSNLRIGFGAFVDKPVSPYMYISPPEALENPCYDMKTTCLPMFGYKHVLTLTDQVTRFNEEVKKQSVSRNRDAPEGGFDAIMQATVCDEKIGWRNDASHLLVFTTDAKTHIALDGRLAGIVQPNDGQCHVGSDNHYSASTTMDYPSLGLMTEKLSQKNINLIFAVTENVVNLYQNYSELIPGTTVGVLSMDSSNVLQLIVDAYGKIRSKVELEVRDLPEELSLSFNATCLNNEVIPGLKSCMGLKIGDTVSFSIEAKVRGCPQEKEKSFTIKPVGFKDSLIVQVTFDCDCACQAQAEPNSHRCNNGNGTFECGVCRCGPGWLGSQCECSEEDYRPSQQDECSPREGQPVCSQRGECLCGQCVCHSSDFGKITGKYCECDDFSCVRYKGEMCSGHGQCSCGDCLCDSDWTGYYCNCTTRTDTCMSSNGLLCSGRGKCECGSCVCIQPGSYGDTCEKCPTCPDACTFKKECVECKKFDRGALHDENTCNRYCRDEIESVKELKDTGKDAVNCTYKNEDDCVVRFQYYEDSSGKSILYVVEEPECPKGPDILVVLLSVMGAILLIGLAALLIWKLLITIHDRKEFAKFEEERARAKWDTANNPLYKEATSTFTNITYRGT

Substance: cyclo(RGDfK)
- affinity for integrin αvβ3: high affinity
